Measurements: the NIST ThermoML archive (doi:10.1021/je049534w)
“And” between values parts separate entries of the source, which are not always exact repeats. Equal entries are not always repeated.

Tests used:
[1] = Liquid, Linear variable-path acoustic interferometer
[2] = Solid-liquid equilibrium temperature; conditions: Crystal, Speed of sound

CCCCn1cc[n+](C)c1.F[P-](F)(F)(F)(F)F [1-butyl-3-methylimidazolium hexafluorophosphate]
[1]
Conditions | speed of sound
283.16 K, 100 kPa | 1455.5 m/s and 1457.6 m/s
283.16 K, 5088 kPa | 1468.6 m/s
283.16 K, 5131 kPa | 1470.6 m/s
283.16 K, 10263 kPa | 1481.8 m/s
283.16 K, 20249 kPa | 1506.7 m/s
283.16 K, 29954 kPa | 1529.9 m/s
283.16 K, 29995 kPa | 1532.5 m/s
283.16 K, 44961 kPa | 1564.2 m/s
283.16 K, 59682 kPa | 1596.7 m/s
283.16 K, 59829 kPa | 1599.6 m/s
283.16 K, 79904 kPa | 1638.6 m/s
283.16 K, 99077 kPa | 1677.1 m/s
283.16 K, 124179 kPa | 1724.4 m/s
283.16 K, 150925 kPa | 1772.6 m/s
291.15 K, 100 kPa | 1440.2 m/s
291.15 K, 5069 kPa | 1453.3 m/s
291.15 K, 10166 kPa | 1466.6 m/s
291.15 K, 20400 kPa | 1492.4 m/s
291.15 K, 30019 kPa | 1515.7 m/s
291.15 K, 44920 kPa | 1550 m/s
291.15 K, 59912 kPa | 1583.2 m/s
293.16 K, 100 kPa | 1432.8 m/s and 1431.6 m/s
293.16 K, 5157 kPa | 1446.5 m/s
293.16 K, 10195 kPa | 1459 m/s
293.16 K, 20215 kPa | 1484.2 m/s
293.16 K, 29959 kPa | 1507.9 m/s
293.16 K, 44757 kPa | 1542.2 m/s
293.16 K, 59732 kPa | 1574.7 m/s
293.16 K, 78627 kPa | 1613.8 m/s
293.16 K, 99149 kPa | 1654.5 m/s
294.16 K, 5125 kPa | 1444.5 m/s
294.16 K, 10105 kPa | 1457.2 m/s
294.16 K, 20357 kPa | 1483.2 m/s
294.16 K, 29785 kPa | 1506 m/s
303.16 K, 100 kPa | 1410.3 m/s
303.16 K, 5078 kPa | 1423.5 m/s
303.16 K, 10204 kPa | 1437.1 m/s
303.16 K, 20225 kPa | 1462.8 m/s
303.16 K, 44714 kPa | 1521.3 m/s
303.16 K, 59773 kPa | 1554.6 m/s
303.16 K, 98921 kPa | 1634.4 m/s
313.16 K, 100 kPa | 1389.5 m/s
313.16 K, 5010 kPa | 1402.8 m/s
313.16 K, 10043 kPa | 1416.4 m/s
313.16 K, 20319 kPa | 1443.3 m/s
313.16 K, 41702 kPa | 1495.1 m/s
313.16 K, 44866 kPa | 1502.9 m/s
313.16 K, 59754 kPa | 1536.3 m/s
313.16 K, 79721 kPa | 1578.6 m/s
313.16 K, 99097 kPa | 1617.4 m/s
313.16 K, 125283 kPa | 1662.2 m/s
323.25 K, 100 kPa | 1368 m/s
323.25 K, 5061 kPa | 1381.8 m/s
323.25 K, 9942 kPa | 1395.4 m/s
323.25 K, 20234 kPa | 1422.7 m/s
323.25 K, 29721 kPa | 1446.8 m/s
323.25 K, 44935 kPa | 1482.2 m/s
323.25 K, 59711 kPa | 1516 m/s
323.25 K, 79553 kPa | 1557.9 m/s
323.25 K, 98901 kPa | 1592.5 m/s

[2]
Conditions | Solid-liquid equilibrium temperature [K]
100 kPa | 285
34000 kPa | 291.15
40200 kPa | 293.15
42500 kPa | 294.16
55000 kPa | 296.15
88900 kPa | 303.15
